Data on twelve molecules can be found in patent publication US12172995B2, “Substituted indole and indazole compounds” (BRISTOL-MYERS SQUIBB COMPANY, priority 2018, dated 2024).

A word on the IC50: it is the concentration that gives 50% inhibition. A low value points to greater potency.

Holding throughout (assay type): cell-based
One test concerns the target T1, human TLR7 (Homo sapiens, UniProt Q9NYK1).
T1 construct: host or cells: HEK-Blue cells
T1 sequence (Q9NYK1 27-1049): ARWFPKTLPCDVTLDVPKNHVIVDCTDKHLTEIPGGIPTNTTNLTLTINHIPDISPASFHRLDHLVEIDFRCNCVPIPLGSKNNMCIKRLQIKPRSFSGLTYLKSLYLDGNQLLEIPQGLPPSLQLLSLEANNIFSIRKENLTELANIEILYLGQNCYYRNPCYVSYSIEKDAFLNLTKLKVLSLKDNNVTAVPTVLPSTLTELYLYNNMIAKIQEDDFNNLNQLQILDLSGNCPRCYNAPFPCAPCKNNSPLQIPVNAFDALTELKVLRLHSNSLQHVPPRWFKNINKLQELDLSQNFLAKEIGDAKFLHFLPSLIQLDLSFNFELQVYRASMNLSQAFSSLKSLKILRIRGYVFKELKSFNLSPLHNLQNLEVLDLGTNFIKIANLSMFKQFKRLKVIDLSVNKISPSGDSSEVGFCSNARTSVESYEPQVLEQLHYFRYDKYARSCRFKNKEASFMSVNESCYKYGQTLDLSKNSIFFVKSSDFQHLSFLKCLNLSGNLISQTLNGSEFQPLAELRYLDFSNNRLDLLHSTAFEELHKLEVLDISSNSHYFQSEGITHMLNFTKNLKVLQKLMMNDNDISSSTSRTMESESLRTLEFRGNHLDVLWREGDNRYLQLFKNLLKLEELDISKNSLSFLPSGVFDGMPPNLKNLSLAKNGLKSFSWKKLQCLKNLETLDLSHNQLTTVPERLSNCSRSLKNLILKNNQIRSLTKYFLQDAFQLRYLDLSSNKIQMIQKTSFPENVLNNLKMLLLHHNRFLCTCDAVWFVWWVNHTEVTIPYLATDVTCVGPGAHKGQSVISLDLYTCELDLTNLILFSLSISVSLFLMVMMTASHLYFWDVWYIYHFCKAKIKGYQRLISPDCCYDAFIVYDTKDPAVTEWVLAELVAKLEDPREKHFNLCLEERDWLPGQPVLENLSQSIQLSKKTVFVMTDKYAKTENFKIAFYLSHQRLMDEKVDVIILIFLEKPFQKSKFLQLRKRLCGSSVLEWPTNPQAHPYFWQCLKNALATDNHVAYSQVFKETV
Description: TLR7 inhibition reporter assay (HEK-Blue SEAP). As to conditions: HEK-Blue cells overexpressing human TLR7, stimulated with gardiquimod 7.5 μM, 22 hour incubation. An outline of the steps: (§1)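 Percent inhibition reflects SEAP reduction after 22 h at 37° C, relative to agonist-plus-DMSO and known-inhibitor controls. Compounds (0.05 nM to 50 μM) were added 30 min before agonist: TLR9 cells received ODN2006 5 nM, TLR8 cells R848 15.9 μM, TLR7 cells gardiquimod 7.5 μM; human receptor-expressing HEK-Blue reporter lines.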
Background: Reporter assays use an easily measured gene product as a stand-in for the process of interest.

Another test has as its target T2, human TLR8 (Homo sapiens, UniProt Q9NR97).
T2 construct: host or cells: HEK-Blue cells
T2 sequence (Q9NR97 27-1041): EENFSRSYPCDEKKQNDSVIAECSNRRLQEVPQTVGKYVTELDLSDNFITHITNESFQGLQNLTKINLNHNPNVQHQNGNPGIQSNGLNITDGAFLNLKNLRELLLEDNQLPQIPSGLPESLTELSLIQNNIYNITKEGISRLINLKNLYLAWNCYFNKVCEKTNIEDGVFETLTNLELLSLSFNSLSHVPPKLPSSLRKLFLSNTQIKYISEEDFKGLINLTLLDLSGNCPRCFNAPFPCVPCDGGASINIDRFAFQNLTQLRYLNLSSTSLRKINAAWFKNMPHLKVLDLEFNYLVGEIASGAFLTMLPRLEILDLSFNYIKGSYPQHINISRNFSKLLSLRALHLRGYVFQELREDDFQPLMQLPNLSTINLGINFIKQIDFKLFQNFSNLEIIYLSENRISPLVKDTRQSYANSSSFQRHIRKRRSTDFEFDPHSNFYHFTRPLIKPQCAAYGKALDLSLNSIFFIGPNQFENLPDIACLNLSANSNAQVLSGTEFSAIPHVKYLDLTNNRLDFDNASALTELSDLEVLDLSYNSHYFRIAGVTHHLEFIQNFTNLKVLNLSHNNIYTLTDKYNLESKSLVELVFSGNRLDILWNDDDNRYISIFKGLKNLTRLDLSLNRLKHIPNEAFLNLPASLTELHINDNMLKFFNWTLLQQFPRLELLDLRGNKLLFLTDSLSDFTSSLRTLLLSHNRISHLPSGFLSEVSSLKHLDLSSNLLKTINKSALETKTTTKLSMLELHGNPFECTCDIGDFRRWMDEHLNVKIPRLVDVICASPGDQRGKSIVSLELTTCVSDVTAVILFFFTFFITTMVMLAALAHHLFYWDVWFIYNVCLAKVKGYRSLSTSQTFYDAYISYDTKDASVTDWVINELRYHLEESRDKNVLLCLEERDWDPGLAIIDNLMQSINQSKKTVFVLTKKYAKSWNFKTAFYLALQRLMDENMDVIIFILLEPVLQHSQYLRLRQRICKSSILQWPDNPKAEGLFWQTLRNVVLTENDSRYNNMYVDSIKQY
Briefly: TLR8 inhibition reporter assay (HEK-Blue SEAP). As to conditions: HEK-Blue cells overexpressing human TLR8, stimulated with R848 15.9 μM, 22 hour incubation. An outline of the steps:
as §1

The target of another test is T3, human TLR9 (Homo sapiens, UniProt Q9NR96).
T3 construct: host or cells: HEK-Blue cells
T3 sequence (Q9NR96 26-1032): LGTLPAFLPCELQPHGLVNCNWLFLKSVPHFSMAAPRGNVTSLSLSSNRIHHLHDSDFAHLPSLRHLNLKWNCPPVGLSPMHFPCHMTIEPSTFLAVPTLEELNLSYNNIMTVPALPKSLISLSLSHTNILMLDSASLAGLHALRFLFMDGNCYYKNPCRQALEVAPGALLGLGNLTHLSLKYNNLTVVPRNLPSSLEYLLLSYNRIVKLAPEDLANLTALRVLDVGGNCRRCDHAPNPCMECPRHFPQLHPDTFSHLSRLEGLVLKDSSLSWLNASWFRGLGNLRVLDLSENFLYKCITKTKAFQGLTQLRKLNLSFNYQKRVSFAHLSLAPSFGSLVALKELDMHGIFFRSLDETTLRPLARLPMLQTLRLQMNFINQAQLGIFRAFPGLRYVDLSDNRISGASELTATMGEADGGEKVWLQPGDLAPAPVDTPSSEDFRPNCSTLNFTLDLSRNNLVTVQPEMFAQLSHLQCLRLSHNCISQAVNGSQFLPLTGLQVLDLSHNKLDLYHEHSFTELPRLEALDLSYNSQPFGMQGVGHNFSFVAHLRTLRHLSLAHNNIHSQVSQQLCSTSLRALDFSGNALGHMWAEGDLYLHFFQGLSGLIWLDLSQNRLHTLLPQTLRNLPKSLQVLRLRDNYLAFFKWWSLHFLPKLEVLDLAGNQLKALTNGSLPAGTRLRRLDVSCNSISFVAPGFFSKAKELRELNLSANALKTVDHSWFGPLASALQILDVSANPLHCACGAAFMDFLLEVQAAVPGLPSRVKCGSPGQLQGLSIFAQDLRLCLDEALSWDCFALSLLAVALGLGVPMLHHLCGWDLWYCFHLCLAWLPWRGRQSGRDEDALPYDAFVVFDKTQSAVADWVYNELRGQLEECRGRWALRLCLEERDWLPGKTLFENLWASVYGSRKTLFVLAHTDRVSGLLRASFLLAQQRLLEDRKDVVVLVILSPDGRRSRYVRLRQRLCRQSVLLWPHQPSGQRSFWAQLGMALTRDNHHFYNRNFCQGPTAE
Description: TLR9 inhibition reporter assay (HEK-Blue SEAP). As to conditions: HEK-Blue cells overexpressing human TLR9, stimulated with ODN2006 5 nM, 22 hour incubation. A digest of the protocol: as §1

For the molecule `Cc1cc(-c2cc3[nH]nc(C4CCC(N5CCC6(CCOC6)C5)CC4)c3cc2C(C)C)cn2ncnc12` (single isomer, unassigned) [Example 210, 7-(4-(5-isopropyl-6-(8-methyl-[1,2,4]triazolo[1,5-a]pyridin-6-yl)-1H-indazol-3-yl)cyclohexyl)-2-oxa-7-azaspiro[4.4]nonane], the half-inhibitory concentration (IC50) on human TLR7 worked out at 2.1 nM; on human TLR8, 0.37 nM; against human TLR9 it was 5910 nM.

`COc1cc(-c2cc(C)c3c(OC4CCC(N(C)C)CC4)n[nH]c3c2)cn2ncnc12` (single isomer, unassigned) [Example 184, 4-((6-(8-methoxy-[1,2,4]triazolo[1,5-a]pyridin-6-yl)-4-methyl-1H-indazol-3-yl)oxy)-N,N-dimethylcyclohexan-1-amine]: the figures for the half-maximal inhibitory concentration (IC50) against human TLR7, on human TLR8 and against human TLR9 were 1.8 nM, 1.8 nM and 1190 nM, respectively.

Turning to `Cc1cc2c(C3CCCN(C4COC4)C3)n[nH]c2cc1-c1cc(C)c2ncnn2c1` (stereo not drawn) [Example 42, 8-methyl-6-(5-methyl-3-(1-(oxetan-3-yl)piperidin-3-yl)-1H-indazol-6-yl)-[1,2,4]triazolo[1,5-a]pyridine], the values for the half-inhibitory concentration (IC50) against human TLR7, on human TLR8 and against human TLR9 were 83.6 nM, 0.9 nM and 14500 nM, respectively.

As to `CCc1cc2c(C3CCC(NCC(=O)N(C)C)CC3)n[nH]c2cc1-c1cc(C)c2ncnn2c1` (stereo not drawn) [Example 96, 2-((4-(5-ethyl-6-(8-methyl-[1,2,4]triazolo[1,5-a]pyridin-6-yl)-1H-indazol-3-yl)cyclohexyl)amino)-N,N-dimethylacetamide], the half-inhibitory concentration (IC50) against human TLR7 is 3 nM; against human TLR8 it was 0.2 nM; against human TLR9, 16000 nM.

Consider `Cc1cc2c(OC3CCC(N(C)C)CC3)n[nH]c2cc1-c1cc(C)c2ncnn2c1` (single isomer, unassigned) [Example 181, N,N-dimethyl-4-((5-methyl-6-(8-methyl-[1,2,4]triazolo[1,5-a]pyridin-6-yl)-1H-indazol-3-yl)oxy)cyclohexan-1-amine], for which the values for the half-inhibitory concentration (IC50) on human TLR7, at human TLR8 and against human TLR9 were 71.7 nM, 19.9 nM and at least 50000 nM, respectively.

Take `Cc1cc2c(OC3CCNCC3)n[nH]c2cc1-c1cc(C)c2ncnn2c1` [Example 167, 8-methyl-6-(5-methyl-3-(piperidin-4-yloxy)-1H-indazol-6-yl)-[1,2,4]triazolo[1,5-a]pyridine]: the results for the concentration for half-maximal inhibition (IC50) on human TLR7, against human TLR8 and against human TLR9 were 5.4 nM, 0.2 nM and 631 nM, respectively.

Consider `Cc1cc(-c2cc3[nH]nc(N4CCN(C(C)C)CC4)c3cc2C(C)C)cn2ncnc12` [Example 208, 6-(5-isopropyl-3-(4-isopropylpiperazin-1-yl)-1H-indazol-6-yl)-8-methyl-[1,2,4]triazolo[1,5-a]pyridine], for which the 50% inhibitory concentration (IC50) on human TLR7 was determined as 5.8 nM; against human TLR8 it was 0.12 nM; at human TLR9, 11900 nM.

Regarding `CNC1CCC(c2n[nH]c3cc(-c4cc(C)c5ncnn5c4)c(C)cc23)CC1` (stereo not drawn) [Example 44, N-methyl-4-(5-methyl-6-(8-methyl-[1,2,4]triazolo[1,5-a]pyridin-6-yl)-1H-indazol-3-yl)cyclohexan-1-amine], the IC50 was found to be 46.3 nM against human TLR7, 1.9 nM against human TLR8 and 5490 nM against human TLR9.

With `Cc1cc(-c2cc3[nH]nc(C4CCC(N5CCC5)CC4)c3cc2C(C)C)cn2ncnc12` (single isomer, unassigned) [Example 139, 6-(3-(4-(azetidin-1-yl)cyclohexyl)-5-isopropyl-1H-indazol-6-yl)-8-methyl-[1,2,4]triazolo[1,5-a]pyridine], the IC50 came out at 1.2 nM against human TLR7, 0.1 nM against human TLR8 and 6250 nM against human TLR9.

In the case of `CCc1cc2c(C3CCN(CC(N)=O)CC3)n[nH]c2cc1-c1cc(C)c2ncnn2c1` [Example 92, 2-(4-(5-ethyl-6-(8-methyl-[1,2,4]triazolo[1,5-a]pyridin-6-yl)-1H-indazol-3-yl)piperidin-1-yl)acetamide], the values for the half-maximal inhibitory concentration (IC50) against human TLR7, against human TLR8 and at human TLR9 were 2.7 nM, 0.2 nM and 17200 nM, respectively.

On to `Cc1cc(-c2cc(C)c3ncnn3c2)cc2[nH]nc(OC3CCC(NCC(=O)N(C)C)CC3)c12` (single isomer, unassigned) [Example 185, N,N-dimethyl-2-((4-((4-methyl-6-(8-methyl-[1,2,4]triazolo[1,5-a]pyridin-6-yl)-1H-indazol-3-yl)oxy)cyclohexyl)amino)acetamide], for which the IC50 was 20.9 nM against human TLR7, 9.5 nM at human TLR8 and 2770 nM against human TLR9.

For `Cc1cc2c(CC3CCNCC3)n[nH]c2cc1-c1cc(C)c2ncnn2c1` [Example 10, 8-methyl-6-(5-methyl-3-(piperidin-4-ylmethyl)-1H-indazol-6-yl)-[1,2,4]triazolo[1,5-a]pyridine], the IC50 against human TLR7 came out at 68.9 nM; against human TLR8 it was 3.8 nM; at human TLR9 it was 1010 nM.
